Measurements taken from publication PMC10892423 (Pharmaceutics, 2024).
Converted amounts (≈) assume the structure as drawn. Where two headings read alike, the source gives them in different places. Values belong to the compound of their own block, whether it stands above or below them.

Assays:
[1] = tested on: MBL-producing P. aeruginosa clinical isolates; test: Broth microdilution checkerboard synergy assay (MIC of ATM in combination); assay type: cell-based, Pseudomonas aeruginosa; conditions: for MIC of ATM, alone or in combination: Table 4; for MIC Value of ATM, alone or in combination with ARMA: Table 2
[2] = tested on: MBL-producing P. aeruginosa static biofilms; test: Anti-biofilm activity, crystal violet staining; assay type: cell-based, Pseudomonas aeruginosa; conditions: for Biofilm biomass (OD600): 27 32 mg/L
Text: inhibitor 27 against MBL-producing P. aeruginosa clinical isolates.
1 Biofilm biomass was quantified by crystal violet staining at OD600.2 %-inhibition of biofilm

[3] = tested on: MBL-producing P. aeruginosa clinical isolates; test: MIC by broth microdilution (CLSI); assay type: cell-based, Pseudomonas aeruginosa; conditions: for MIC: Pseudomonas aeruginosa
Procedure: The DMSO stock solutions of the test compounds were serially diluted to the desired concentrations in CAMHB. Then, 10 μL of the bacterial suspension (5 × 10^5 colony forming units (CFU)/mL) was combined with 200 μL of DMSO stock solutions of the test compounds in 96-well microtiter plates (1% DMSO, final). After the incubation of the plate at 37 °C for 24 h, bacterial growth was visibly evaluated by monitoring the turbidity of the resulting suspension, and the MICs were determined as the lowest concentrations of the test compounds that inhibited the visible growth of the bacteria.

[4] = target: T1, NDM-1 (Klebsiella pneumoniae, UniProt C7C422); test: β-lactamase inhibition, imipenem hydrolysis; assay type: biochemical
T1 construct: purchased RayBiotech, Inc. 230-00554
Text: (§1) Recombinant AmpC from Escherichia coli was produced according to a previously reported protocol. KPC-2 and NDM-1 […] were purchased from LifeSpan Biosciences, Inc. (Lynnwood, WA, USA) (LS-G26598) and RayBiotech, Inc. (Peachtree Corners, GA, USA) (230-00554), respectively. Genes encoding OXA-48 (residues 23–265) and VIM-2 (residues 27–266) were custom-synthesized (Bioneer Inc., Seoul, Republic of Korea) and expressed as previously described. The β-lactamase inhibitory activity of the title compounds was then determined according to the previously reported methods. Briefly, equal volumes (100 μL) of the title compounds (70–0.1 μM in PBS) and diluted enzyme stock were mixed (final concentration 2% of DMSO in 200 μL) in 96-well plates, which were then incubated at 37 °C for 20 min. The incubated mixture was added to each well containing substrates (nitrocefin for AmpC, KPC-2, OXA-48, and VIM-2; and imipenem for NDM-1) of final concentrations of 70 μM for nitrocefin and 100 μM for imipenem. Substrate hydrolysis was monitored at 486 nm (nitrocefin) or 300 nm (imipenem) for 15 min, using a Cytation 5 imaging multimode reader (BioTek Instruments Inc., Winooski, VT, USA). At the plateau level of hydrolysis, the corresponding rates of hydrolysis were compared to those obtained without inhibitors (100%) to determine the percentage of enzyme inhibition at each concentration of the title compounds. The IC50 values of the compounds were derived from sigmoidal dose–response curves, using GraphPad Prism 5 (GraphPad Software, Boston, MA, USA).

[5] = target: T2, VIM-2 (Escherichia coli, UniProt Q5U7L7); test: β-lactamase inhibition, nitrocefin hydrolysis; assay type: biochemical
T2 construct: Genes encoding OXA-48 (residues 23–265) and VIM-2 (residues 27–266) were custom-synthesized; made in house
Text: as §1

[6] = target: T3, AmpC (Escherichia coli, UniProt P00811); test: β-lactamase inhibition, nitrocefin hydrolysis; assay type: biochemical
T3 construct: made in house
Text: as §1

[7] = target: T4, KPC-2 (Klebsiella pneumoniae, UniProt Q9F663); test: β-lactamase inhibition, nitrocefin hydrolysis; assay type: biochemical
T4 construct: purchased LifeSpan Biosciences, Inc. LS-G26598
Text: as §1

[8] = target: T5, OXA-48 (Klebsiella pneumoniae, UniProt Q6XEC0); test: β-lactamase inhibition, nitrocefin hydrolysis; assay type: biochemical
T5 construct: Genes encoding OXA-48 (residues 23–265) and VIM-2 (residues 27–266) were custom-synthesized; made in house
Text: as §1

[9] = imipenem substrate, read-out: β-Lactamases, IC50 NDM-1
[10] = nitrocefin substrate, read-out: β-Lactamases, IC50 VIM-2
[11] = nitrocefin substrate, read-out: β-Lactamases, IC50 KPC-2
[12] = nitrocefin substrate, read-out: β-Lactamases, IC50 OXA-48

T1 sequence (C7C422 29-270, looked up, species assumed): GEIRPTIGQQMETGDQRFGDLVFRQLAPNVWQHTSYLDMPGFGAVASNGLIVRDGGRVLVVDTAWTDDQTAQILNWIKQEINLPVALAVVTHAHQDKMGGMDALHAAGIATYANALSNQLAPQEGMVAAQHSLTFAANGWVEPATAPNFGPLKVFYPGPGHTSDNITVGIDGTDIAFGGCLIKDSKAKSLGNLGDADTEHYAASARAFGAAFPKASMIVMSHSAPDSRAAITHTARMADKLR
T5 sequence (Q6XEC0 23-265 limits assumed): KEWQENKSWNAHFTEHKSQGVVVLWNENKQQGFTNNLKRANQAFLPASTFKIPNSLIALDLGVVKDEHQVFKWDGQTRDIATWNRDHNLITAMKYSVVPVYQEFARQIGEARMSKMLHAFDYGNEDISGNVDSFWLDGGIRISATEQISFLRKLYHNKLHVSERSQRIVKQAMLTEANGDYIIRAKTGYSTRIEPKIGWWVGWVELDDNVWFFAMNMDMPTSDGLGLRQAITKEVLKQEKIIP
T3 sequence (P00811 20-377): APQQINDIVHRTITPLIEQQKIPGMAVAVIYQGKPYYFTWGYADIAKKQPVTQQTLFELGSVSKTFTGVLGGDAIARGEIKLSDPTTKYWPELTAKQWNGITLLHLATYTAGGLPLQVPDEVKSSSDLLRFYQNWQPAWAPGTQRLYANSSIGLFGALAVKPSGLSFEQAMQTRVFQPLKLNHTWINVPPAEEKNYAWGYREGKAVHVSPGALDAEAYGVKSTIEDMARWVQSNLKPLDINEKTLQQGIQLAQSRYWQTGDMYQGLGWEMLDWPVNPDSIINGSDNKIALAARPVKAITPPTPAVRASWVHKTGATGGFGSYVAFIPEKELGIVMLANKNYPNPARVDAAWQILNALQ
T4 sequence (Q9F663 25-293, looked up): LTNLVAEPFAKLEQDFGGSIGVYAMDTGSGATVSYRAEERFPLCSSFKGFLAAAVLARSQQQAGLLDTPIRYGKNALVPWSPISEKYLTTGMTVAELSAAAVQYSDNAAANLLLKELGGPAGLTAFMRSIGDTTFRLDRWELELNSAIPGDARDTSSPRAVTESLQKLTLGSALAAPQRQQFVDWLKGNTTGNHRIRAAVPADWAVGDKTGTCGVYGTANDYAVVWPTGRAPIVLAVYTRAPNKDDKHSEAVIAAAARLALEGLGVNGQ

MIC of ATM, alone or in combination ([1]; PA-001, blaNDM): 32 µg/mL | MIC Value of ATM, alone or in combination with ARMA ([1]; PA-002, blaIMP): 64 µg/mL | MIC of ATM, alone or in combination ([1]; PA-002, blaIMP): 64 µg/mL | MIC Value of ATM, alone or in combination with ARMA ([1]; PA-003, blaVIM): 32 µg/mL | MIC of ATM, alone or in combination ([1]; PA-007, blaNDM): 16 µg/mL | MIC of ATM, alone or in combination ([1]; PA-008, blaNDM): 16 µg/mL | MIC of ATM, alone or in combination ([1]; PA-011, blaNDM): 16 µg/mL | MIC of ATM, alone or in combination ([1]; PA-012, blaNDM): 16 µg/mL | MIC of ATM, alone or in combination ([1]; PA-016, blaIMP): 64 µg/mL | MIC of ATM, alone or in combination ([1]; PA-017, blaNDM): 16 µg/mL | MIC of ATM, alone or in combination ([1]; PA-019, blaNDM): 16 µg/mL | MIC of ATM, alone or in combination ([1]; PA-020, blaNDM): 16 µg/mL | MIC of ATM, alone or in combination ([1]; PA-023, blaNDM): 16 µg/mL | MIC Value of ATM, alone or in combination with ARMA ([1]; PA-025, blaNDM): 16 µg/mL | MIC of ATM, alone or in combination ([1]; PA-025, blaNDM): 16 µg/mL | MIC of ATM, alone or in combination ([1]; PA-027, blaIMP): 32 µg/mL | MIC of ATM, alone or in combination ([1]; PA-028, blaNDM): 8 µg/mL | MIC of ATM, alone or in combination ([1]; PA-029, blaIMP): 64 µg/mL | MIC of ATM, alone or in combination ([1]; PA-030, blaIMP): 64 µg/mL | MIC of ATM, alone or in combination ([1]; PA-034, blaNDM): 16 µg/mL | MIC of ATM, alone or in combination ([1]; PA-036, blaNDM): 16 µg/mL | MIC Value of ATM, alone or in combination with ARMA ([1]; PA-038, blaNDM): 16 µg/mL | MIC of ATM, alone or in combination ([1]; PA-038, blaNDM): 16 µg/mL | MIC of ATM, alone or in combination ([1]; PA-039, blaNDM): 16 µg/mL | MIC of ATM, alone or in combination ([1]; PA-044, blaNDM): 16 µg/mL | ATM MICs relative to the CLSI antibiotic susceptibility breakpoint (1 mg/L) ([3]; 21 MBL-producing P. aeruginosa strains): 8–64 times higher | MIC ([3]; PA-001, blaNDM): 32 µg/mL (≈ 73.5 µM) | MIC ([3]; PA-002, blaIMP): 64 µg/mL (≈ 147 µM) | MIC ([3]; PA-007, blaNDM): 16 µg/mL (≈ 36.7 µM) | MIC ([3]; PA-008, blaNDM): 16 µg/mL (≈ 36.7 µM) | MIC ([3]; PA-011, blaNDM): 16 µg/mL (≈ 36.7 µM) | MIC ([3]; PA-012, blaNDM): 16 µg/mL (≈ 36.7 µM) | MIC ([3]; PA-016, blaIMP): 64 µg/mL (≈ 147 µM) | MIC ([3]; PA-017, blaNDM): 16 µg/mL (≈ 36.7 µM) | MIC ([3]; PA-019, blaNDM): 16 µg/mL (≈ 36.7 µM) | MIC ([3]; PA-020, blaNDM): 16 µg/mL (≈ 36.7 µM) | MIC ([3]; PA-023, blaNDM): 16 µg/mL (≈ 36.7 µM) | MIC ([3]; PA-025, blaNDM): 16 µg/mL (≈ 36.7 µM) | MIC ([3]; PA-027, blaIMP): 32 µg/mL (≈ 73.5 µM) | MIC ([3]; PA-028, blaNDM): 8 µg/mL (≈ 18.4 µM) | MIC ([3]; PA-029, blaIMP): 64 µg/mL (≈ 147 µM) | MIC ([3]; PA-030, blaIMP): 64 µg/mL (≈ 147 µM) | MIC ([3]; PA-034, blaNDM): 16 µg/mL (≈ 36.7 µM) | MIC ([3]; PA-036, blaNDM): 16 µg/mL (≈ 36.7 µM) | MIC ([3]; PA-038, blaNDM): 16 µg/mL (≈ 36.7 µM) | MIC ([3]; PA-039, blaNDM): 16 µg/mL (≈ 36.7 µM) | MIC ([3]; PA-044, blaNDM): 16 µg/mL (≈ 36.7 µM)
Compound: C[C@H]1[C@H](NC(=O)/C(=N\OC(C)(C)C(=O)O)c2csc(N)n2)C(=O)N1S(=O)(=O)O [ATM, aztreonam]
inhibition of biofilm formation ([2]; 1/2 × MIC ATM alone): no significant inhibition of biofilm formation | Biofilm biomass (OD600) ([2]; PA-007, blaNDM, ATM 1/2 MIC (8 mg/L)): 1.03 | Biofilm biomass (OD600) ([2]; PA-011, blaNDM, ATM 1/2 MIC (8 mg/L)): 0.51 | Biofilm biomass (OD600) ([2]; PA-012, blaNDM, ATM 1/2 MIC (8 mg/L)): 0.23 | Biofilm biomass (OD600) ([2]; PA-030, blaIMP, ATM 1/2 MIC (32 mg/L)): 1.84

Compound: NC(=O)[C@@H]1CC[C@@H]2CN1C(=O)N2OS(=O)(=O)O [AVI, avibactam]
concentration at which ATM-potentiating activity was observed ([1]; four representative MBL-producing P. aeruginosa strains (Table 2)): 128 mg/L

Compound: O=c1c(OCCN2CC2)c(-c2ccc(F)c(F)c2)oc2cc(O)cc(O)c12 [Compound 14]
IC50 [4]: > 50 µM | IC50 [5]: > 100 µM | IC50 [6]: > 50 µM | IC50 [7]: > 50 µM | IC50 [8]: > 100 µM

Compound: C[N+](C)(CCOc1c(-c2ccc(F)c(F)c2)oc2cc(O)cc(O)c2c1=O)CC(=O)[O-] [Compound 15]
IC50 [4, 9]: > 50 µM | IC50 [5, 10]: > 100 µM | IC50 [6]: > 50 µM | IC50 [7, 11]: > 50 µM | IC50 [8, 12]: > 100 µM

Compound: CN1CCN(CCOc2c(-c3ccc(F)c(F)c3)oc3cc(O)cc(O)c3c2=O)CC1 [Compound 16]
IC50 [4, 9]: > 50 µM | IC50 [5, 10]: > 100 µM | IC50 [6]: > 50 µM | IC50 [7, 11]: > 50 µM | IC50 [8, 12]: > 100 µM

Compound: O=c1c(OCCN2CCNCC2)c(-c2ccc(F)c(F)c2)oc2cc(O)cc(O)c12 [Compound 17]
IC50 [4, 9]: > 50 µM | IC50 [5, 10]: > 100 µM | IC50 [6]: > 50 µM | IC50 [7, 11]: > 50 µM | IC50 [8, 12]: > 100 µM

Compound: O=c1c(OCCN2CCCC2)c(-c2ccc(F)c(F)c2)oc2cc(O)cc(O)c12 [Compound 18]
IC50 [4, 9]: > 50 µM | IC50 [5, 10]: > 100 µM | IC50 [6]: > 50 µM | IC50 [7, 11]: > 50 µM | IC50 [8, 12]: > 100 µM

Compound: O=c1c(OCCN2CCCCC2)c(-c2ccc(F)c(F)c2)oc2cc(O)cc(O)c12 [Compound 19]
IC50 [4, 9]: > 50 µM | IC50 [5, 10]: > 100 µM | IC50 [6]: > 50 µM | IC50 [7, 11]: > 50 µM | IC50 [8, 12]: > 100 µM
